Laboratory results reported in patent US20250275966A1, “GABAA RECEPTOR MODULATOR SALTS, PARTICLES, AND USES THEREOF” (Engrail Therapeutics, Inc., priority 2022, published 2025).
Counter-ions that a name gives are not always drawn.

Tests used:
[1] = format: physicochemical
Experimental: A hemi-fumarate Form A (acetonitrile solvate) and hemi-fumarate Form B (non-solvated) of 3-(2,5-difluorophenyl)-7-[1,1-di(methyl-d3)ethyl-2,2,2-d3]-6-[(1-methyl-1H-1,2,4-triazol-5-yl)methoxy]-1,2,4-triazolo[4,3-b]pyridazine were prepared. A seed crystal for Form B was prepared by first combining 20.3 mg ([…]) 3-(2,5-difluorophenyl)-7-[1,1-di(methyl-d3)ethyl-2,2,2-d3]-6-[(1-methyl-1H-1,2,4-triazol-5-yl)methoxy]-1,2,4-triazolo[4,3-b]pyridazine with 1000 μL acetone. Fumaric acid/EtOH was added ([…], 1.0 eq) and the sample was continuously stirred while cycling the temperature between 40° C. and 5° C. (heating and cooling at 2° C./min. with 1 hour hold at 40° C. and 5° C.) for 48 hours. The samples were isolated at 5° C. and the suspension was equilibrated with stirring at 20° C. for 2 hours. Birefringent solids were harvested by filtration at room temperature and air-dried overnight. 3-(2,5-difluorophenyl)-7-[1,1-di(methyl-d3)ethyl-2,2,2-d3]-6-[(1-methyl-1H-1,2,4-triazol-5-yl)methoxy]-1,2,4-triazolo[4,3-b]pyridazine (5.51 mmol) was combined with acetone ([…], 16 vol). To the resulting solution (with minimal residual solids), fumaric acid (575 mg, 1.0 eq) was added, followed by seeding, e.g., with Form B (˜10 mg). […]

[2] = Pharmacokinetic analysis of Compound 1 and its salts after oral capsule administration (Example 4); format: in vivo, cynomolgus monkeys; conditions: single PO capsule, 30 mg/kg
Experimental: A pharmacokinetic analysis was performed comparing administration of Compound 1 with certain salts of Compound 1 after oral (PO) administration in 3 male cynomolgus monkeys. The subjects received a single PO oral gavage of active pharmaceutical ingredient (API) (e.g., Compound 1 fumarate, Compound 1 sulfate, Compound 1 hydrochloride, Compound 1 phosphate, Compound 1 tosylate, Compound 1 malonate, Compound 1 maleate, or Compound 1 free base) in a capsule at a dose of 30 mg/kg. Following dose administration, the animals were flushed with approximately 10 milliliters of tap water to ensure all API was administered. Animals were observed twice daily and at sample collection time-points for any abnormal clinical and behavioral signs. Body weights were taken prior to dosing and weekly thereafter until study termination. Blood samples (0.5 mL) were collected pre-dose, 15 minutes, 30 minutes, and 1, 2, 4, 6, 8, 10, 12, and 24 hours post-dose. Each blood sample was collected from the monkey's femoral, saphenous or other available vein via direct venipuncture, placed into a polypropylene tube containing K2EDTA as the anticoagulant, and gently inverted several times to mix. The blood samples were kept on wet ice until centrifugation. Blood was centrifuged within 10 minutes of collection. The samples were centrifuged at a temperature of 4° C., at 3,000 g, for 5 minutes. The resulting plasma (˜0.25 mL) was divided into two equal aliquots (125 μL each) into polypropylene tubes, designated as Set A and Set B, after centrifugation. Plasma samples designated for certain metabolites (Set A) were treated with 12.5 μL of 2 M ascorbic acid (plasma: ascorbic acid=[…], v:v) prepared beforehand by combining 0.352 g of ascorbic acid into 1 mL of sterile water in a glass vial and mixing thoroughly. […] Once plasma was prepared, the samples were snap frozen on dry ice. All plasma samples were stored frozen below −70° C. until analyzed.

[3] = Oral non-human primate crossover PK study (Example 7); format: in vivo, cynomolgus monkeys; conditions: both micronized and non-micronized form; cynomolgus monkeys, single PO capsule
From the text: An objective of this study is to determine the Pharmacokinetic (PK) profile of the Test Article following a single oral administration to four male non-human primate cynomolgus monkeys with one (1) week wash out periods.
Four male animals are used for this study, and the four study animals are used for each of three dosing phases with one-week washout periods. Food is withheld overnight prior to dose administration, and food is returned four hours post-dose administration. Water is provided ad libitum by automatic watering device. Two of the four animals are previously treated with Compound 1, and the other two are Compound 1 naive. Test Article (M-3, N-3, or K-13) are provided as capsulized powders; stored at room temperature protected from light in, for example, a polyolefin bottle.

[4] = Intrinsic dissolution rate and solubility in 0.1 N HCl with 1% Tween 80 (USP <1087>); format: physicochemical; conditions: 0.1 N HCl with 1% Tween 80, 37° C.; for Intrinsic Dissolution Rate IDR: paddle 100 rpm, die surface 0.5 cm^2
Experimental: The intrinsic dissolution rate was determined by forming compacted pellets of approximately 75 mg of API using a compression force of 1200 pounds of force, and each pellet (die surface area: 0.5 cm^2) was immersed into a flat bottom vessel containing 500 mL of medium (aqueous 0.1 N HCl with 1% Tween 80 (polyoxyethylene (20) sorbitan monooleate)), using a Distek 2100A dissolution bath, and Distek Circulator/heater (set to 37° C.), with a paddle speed of 100 rpm. An aliquot of the sample (1 mL) was pulled from dissolution media at 15, 30, 45, 60, 75, 90, 105, and 120 minutes, filtered, and analyzed by HPLC. The slope of the dissolution profile corresponded to an intrinsic dissolution rate of hemi-fumarate salt Form B of 6.2 μg/(min·cm^2) as compared to 8.9 μg/(min·cm^2) for Compound 1 (free base). Determination of intrinsic dissolution rate (IDR) was performed for Compound 1 and seven different salts of Compound 1 according to USP <1087> in 0.1 N hydrochloric acid with 1% Tween 80 (Polyoxyethylene […] sorbitan monooleate). Compacted pellets containing approximately 75 mg API were prepared using a compression force of 1200 pounds of force, and each pellet (die surface area: 0.5 cm^2) was immersed into a flat bottom vessel containing 500 mL of medium, using a Distek 2100A dissolution bath, and Distek Circulator/heater (set to 37° C.), with a paddle speed of 100 rpm. An aliquot of the sample (1 mL) was pulled from dissolution media at 15, 30, 45, 60, 75, 90, 105, and 120 minutes, filtered, and analyzed by HPLC. HPLC for IDR and solid-state stability analyses were conducted with an Agilent 1260 Infinity system equipped with a G1311B Quad pump, […] Autosampler, G1330B auto-sampler thermostat, G1316A Thermostatted Column Compartment with a column switch valve, and […] diode array detector.

[5] = Solid-state stability by HPLC and XRPD; format: physicochemical; conditions: 40° C./75% RH (opened) and 50° C./ambient RH (closed), after 4 weeks
Experimental: Solid-state stability of the fumarate salt of Compound 1 was assessed after storage at the following conditions for 2 and 4 weeks by HPLC and XRPD: 40° C./75% RH (opened); and 50° C./ambient RH (closed). […] Solid-state stability of Compound 1 and seven salts of Compound 1, as in Example 8, was assessed after storage at the following conditions for 2 and 4 weeks by HPLC and PXRD: 40° C./75% RH (opened); and 50° C./ambient RH (closed). HPLC for IDR and solid-state stability analyses were conducted with an Agilent 1260 Infinity system equipped with a G1311B Quad pump, […] Autosampler, G1330B auto-sampler thermostat, G1316A Thermostatted Column Compartment with a column switch valve, and […] diode array detector.

[6] = Gravimetric vapor sorption (GVS); format: physicochemical
Experimental: Selected physicochemical data of Form B were collected. Hemi-fumarate salt Form B was determined to be crystalline by polarized-light microscopy (PLM) and XRPD. […] (ΔH=1.7 J/g), followed immediately by a sharp endotherm at 199.6° C. […] (see FIG. 7). Proton NMR confirmed a hemi-salt with 0.5:1 CI:API ratio. […] No change in the XRPD pattern was observed post GVS.
GVS experiments were conducted on a Surface Measurement Systems DVS-Advantage. The experiments were performed at 25° C. The instrument was operated in step mode and the relative humidity was increased in 10% RH increments from 40% RH to 75% RH, then decreased from 75% RH to 5% RH, then increased a second time from 5% RH to 95% RH, then decreased from 95% RH to 5% RH. The mass equilibrium criterion was set at 0.003% change in mass over time (dm/dt). A minimum step time of 20 minutes and a maximum step time of 240 minutes were specified.

[7] = 3 male cynomolgus monkeys, plasma Compound 1

[2H]C([2H])([2H])C(c1cc2nnc(-c3cc(F)ccc3F)n2nc1OCc1ncnn1C)(C([2H])([2H])[2H])C([2H])([2H])[2H] [Form A, 3-(2,5-difluorophenyl)-7-[1,1-di(methyl-d3)ethyl-2,2,2-d3]-6-[(1-methyl-1H-1,2,4-triazol-5-yl)methoxy]-1,2,4-triazolo[4,3-b]pyridazine]
solid form stability at ambient conditions [1]: converted to Form B

[2H]C([2H])([2H])C(c1cc2nnc(-c3cc(F)ccc3F)n2nc1OCc1ncnn1C)(C([2H])([2H])[2H])C([2H])([2H])[2H] [Fumarate Salt, 3-(2,5-difluorophenyl)-7-[1,1-di(methyl-d3)ethyl-2,2,2-d3]-6-[(1-methyl-1H-1,2,4-triazol-5-yl)methoxy]-1,2,4-triazolo[4,3-b]pyridazine]
Cmax [2, 7]: 3080 ng/mL | Tmax [2, 7]: 4.7 h | Cmax ([2]; 3 male cynomolgus monkeys, plasma Compound 1, listed as fumarate salt of Compound 1, 30 mg/kg): about 3080 ng/mL | AUClast higher than that of Compound 1 ([2]; male cynomolgus monkeys): over 50% | Cmax higher than that of Compound 1 (free base) ([2]; male cynomolgus monkeys): over 98% | AUC(0-t) ([2]; male, cynomolgus monkey, plasma, po, male cynomolgus monkeys): 38900 ng·h/mL | exposure to Compound 1 as compared to subjects dosed with the free base [3]: superior exposure | Solubility, time point 15 min ([4]; 500 mL, pellet about 75 mg, 15 min): 0.342 µg/mL | Solubility, time point 30 min ([4]; 500 mL, pellet about 75 mg, 30 min): 0.404 µg/mL | Solubility, time point 45 min ([4]; 500 mL, pellet about 75 mg, 45 min): 0.46 µg/mL | Solubility, time point 60 min ([4]; 500 mL, pellet about 75 mg, 60 min): 0.576 µg/mL | Solubility, time point 75 min ([4]; 500 mL, pellet about 75 mg, 75 min): 0.684 µg/mL | Solubility, time point 90 min ([4]; 500 mL, pellet about 75 mg, 90 min): 0.79 µg/mL | Solubility, time point 105 min ([4]; 500 mL, pellet about 75 mg, 105 min): 0.87 µg/mL | Solubility, time point 120 min ([4]; 500 mL, pellet about 75 mg, 120 min): 0.993 µg/mL | Intrinsic Dissolution Rate IDR [4]: 6.2 μg/(min · cm^2) | Intrinsic Dissolution Rate IDR ([4]; listed as hemi-fumarate salt Form B): 6.2 μg/(min · cm^2) | Solubility, Cumulative ([4]; sum of the 15-120 min time points): 5.119 µg/mL | Solid-state stability by HPLC or XRPD [5]: No significant changes | XRPD pattern post GVS ([6]; after GVS): No change | moisture uptake (GVS) ([6]; between 5-95% RH, 25° C.): < 0.1 % wt
